From patent US6391599B1, “Sham-sensitive terminal oxidase gene from xylose-fermenting yeast” (priority 2000, dated 2002)
Entries after “also recorded” stand apart in the source; their conditions may differ.

How the values were obtained:
Format in all cases: cell-based, Pichia stipitis
Design in all cases: key to Rotenone sensitivity (rotenone-insensitive respiration): +: Cells sustained rotenone-insensitive respiration; −: Cells could not sustain rotenone-insensitive respiration
[1] = tested on: P. stipitis wild-type CBS 6054; assay: Respiration measurement (oxygen uptake, Clark type electrode) with inhibitor; conditions: 0.1 mM rotenone
Method: (§1) P. stipitis strains were grown overnight in YNBUP-xylose (2%) medium under aerobic conditions. Then half of the overnight-grown cells were transferred to 25 mL fresh medium to grow for 16 h to mid-log phase under the same conditions. The cells were harvested and washed in an assay buffer containing 20 mM potassium phosphate (pH7.0) and 5 mM magnesium chloride. The cells were resuspended in 500 μL of the same buffer for assays. Oxygen uptake was measured by using a Clark type of electrode (Yellow Spring Instrument). The assay was performed in an assay buffer containing 20 mM potassium phosphate, 5 mM magnesium chloride, plus xylose or glucose (2%) as the substrate at 30° C. The assay buffer was saturated with air before the experiment. Ten to fifty μL of cells were injected into the assay chamber and the total reaction volume was 2 mL. Antimycin A, SHAM or rotenone was dissolved in dimethyl formamide while potassium cyanide was dissolved in water. Inhibitor solution was injected into the chamber after adding the cells.

[2] = tested on: P. stipitis FPL-Shi21 (cyc1-Δ); assay: Respiration measurement (oxygen uptake) with inhibitor; conditions: for Rotenone sensitivity (rotenone-insensitive respiration): 0.1 mM rotenone, FPL-Shi21; for Sensitivity of respiration to rotenone (in words): cyc1Δ mutant; for Effect on respiration: FPL-Shi21 (cyc1Δ)
Method: as §1

[3] = tested on: P. stipitis FPL-Shi31 (sto1-Δ); assay: as above; conditions: for Rotenone sensitivity (rotenone-insensitive respiration): 0.1 mM rotenone, FPL-Shi31; for Sensitivity of respiration to rotenone (in words): sto1Δ mutant
Method: as §1

[4] = tested on: P. stipitis FPL-UC7 (ura3-3); assay: as above; conditions: for Rotenone sensitivity (rotenone-insensitive respiration): 0.1 mM rotenone
Method: as §1

## C=C(C)[C@H]1Cc2c(ccc3c2O[C@@H]2COc4cc(OC)c(OC)cc4[C@@H]2C3=O)O1 [rotenone]
[1]; glucose-grown cells, CBS 6054
  Rotenone sensitivity (rotenone-insensitive respiration): −
  Sensitivity of respiration to rotenone (in words): could not sustain any respiration; also recorded: rotenone-sensitive
  Time after injection until cells died and floated in the chamber: ≤ 1 min
[1]; xylose-grown cells
  Oxygen consumption rate, +rotenone: 4.6 ± 0.2 µM/mg/h
[1]; xylose-grown cells, CBS 6054
  Rotenone sensitivity (rotenone-insensitive respiration): +
  Sensitivity of respiration to rotenone (in words): respiration was sustained; also recorded: insensitivity to rotenone
[2]; glucose-grown cells
  Rotenone sensitivity (rotenone-insensitive respiration): −
  Sensitivity of respiration to rotenone (in words): rotenone-sensitive
[2]; xylose-grown cells
  Rotenone sensitivity (rotenone-insensitive respiration): −
  Sensitivity of respiration to rotenone (in words): rotenone-sensitive
[3]; glucose-grown cells
  Rotenone sensitivity (rotenone-insensitive respiration): −
  Sensitivity of respiration to rotenone (in words): rotenone-sensitive
[3]; xylose-grown cells
  Rotenone sensitivity (rotenone-insensitive respiration): −
  Sensitivity of respiration to rotenone (in words): rotenone-sensitive
[4]; glucose-grown cells
  Rotenone sensitivity (rotenone-insensitive respiration): −
  Sensitivity of respiration to rotenone (in words): rotenone-sensitive
[4]; xylose-grown cells
  Rotenone sensitivity (rotenone-insensitive respiration): +
  Sensitivity of respiration to rotenone (in words): insensitivity to rotenone

## O=C(NO)c1ccccc1O [SHAM, salicyl hydroxymate]
[2]
  Effect on respiration: completely blocked
[3]; 4 mM SHAM, sto1Δ cells pre-grown on YNB-xylose (2%)
  Effect on respiration trace: did not show any change

## antimycin A
[2]
  Effect on respiration: insensitivity
[3]; 10 μM antimycin A, sto1Δ mutant cells
  Effect on respiration: respiration dropped to zero
